Results on two molecules are retold here after patent US20170224711A1, “COMPOSITIONS AND METHODS FOR THE TREATMENT OF NEURODEGENERATIVE DISEASES” (University of Houston System, priority 2014, published 2017).

In test [1] the test system is A2780 ovarian cancer cells. The experiment in a line: Western blot protein expression. Format: cell-based, human. The note with it: for ATF3 protein expression compared to control / HPD protein expression compared to control / NMDAR2C protein expression compared to control / RAB27A protein expression compared to control / SLC39A3 (ZIP3) protein expression compared to control / SQSTM1 protein expression compared to control: 24 hrs treatment, Western blot. As to the method: A2780 ovarian cancer cells cell line was cultured in 60 or 100 mm^3 cell culture dishes. Once the plated were 80% confluent, the cells were incubated in the presence and absence of either R,R-D2 or R,R-D4. After 24 hrs of drug treatment, proteins were extracted from the cells using 200-500 μl of either RIPA or MPER protein extraction reagent buffer or both. Halt protease inhibitor cocktail from Thermo Fisher was added to the protein extraction reagents. The protein concentration was measured using BCA kit from Promega. The freshly extracted proteins (40 to 50 μg) were run on a 4-12% or 4-20% tris-glycine gels, at 120 V for 2 to 3 hours after which the proteins were transferred onto nitrocellulose membranes for one hour. Then the blots were incubated in 5% milk. The following primary antibodies were incubated overnight in 5% milk. These antibodies include: mouse anti-rabbit IgG-FITC, mouse anti-goat IgG-PE, anti-mouse IgG2a-PE, SQSTM1 (D-3), Egr-2 (H-220), ZIP3 (D-14), TOX1 (T-12), ATF-3 (H-90), NMDAμ4 (C-20), HPPD (H-300), Fos B (C-20), PPT2 (C-18), Hep G2 Cell Lysate, TMEM106B (C-12), xCT (Q-18) after which the proteins were detected by species-specific HRP-conjugated secondary antibody using ECL chemiluminescence kit purchased from GE health care.
To confirm that the modulation of the genes listed in Table 1, following treatment with RRD2 and RRD4 in the human ovarian cancer cell line, A2780, also affects the protein expression of these genes, some representative genes from Table 1 were assessed for their corresponding protein expression as measured by Western Blot using protein specific antibodies. The protein expressions for HPD, SQSTM1, ATF3, NMDAR2C were higher compared to the control samples while RAB27A and SLC39A3 (ZIP3) expressions were lower than the control samples following treatment with the aforementioned compounds (FIGS. 4A-4B). Note that HPD and NMDAR2C were calibrated against both actin and GADPH (FIG. 4C). As indicated in the Tables, overexpressed proteins/genes are implicated in protecting neurons from a variety of neurodegenerative diseases.
On the technique in general: In western blotting, separated proteins are transferred to a membrane and probed.

The subject of test [2] is Human Ovarian cancer cells, A2780. As to the kind of experiment: CHIP array: whole genome expression (HumanHT-12 v4.0 BeadChip). In kind it is cell-based. The note with it: 12 or 24 hours, vs control or untreated cells; for Fold change expression of ATF / Fold change expression of NMDAR2C: direction ↑; for Fold change expression of RAB27A / Fold change expression of SLC39A3: direction ↓. As to the method:
Human Ovarian cancer cells, A2780, were treated with compound and different concentration for 12 or 24 hours. The total RNA from the treated human cells were extracted by Trizol (Invitrogen) and purified by Rneasy Mini kit (Qiagen, Valencia, Calif.). The concentration and integrity of all RNA samples were assessed using the NanoDrop ND-2000 spectrophotometer (NanoDrop Technologies, Wilmington, Del.) and the Bioanalyzer 2100 system (Agilent Technologies, Santa Clara, Calif.). 1 ug of total RNA from each sample were subjected to whole-genome gene expression analysis at the Microarray Core Facility of University of Texas Southwestern Medical Center (https://microarray.swmed.edu) using the HumanHT-12 v4.0 BeadChip (Illumina, San Diego, Calif.) according to the manufacturer's instructions. Microarray data were extracted using BeadStudio v3.1 software, background-subtracted, and normalized using a cubic spline algorithm. Genes differentially expressed between groups were identified using the Illumina custom error model implemented in BeadStudio. […] The pathways and interaction networks that the genes involved were further analyzed by Ingenuity Pathyway analysis software (www.ingenuity.com).
The treatment of A2780, human ovarian cancer cell line at different concentrations were examined for the differential gene expression compared to the whole human genome and compared to untreated samples (controls). A representative heat map reflecting the fold change in expressions of genes modulated by RRD2 involved in neurodegenerative diseases is shown in FIG. 3. […] These genes are implicated in neurological disorders and neurodegenerative diseases and the modulation of these genes by Phosphaplatins is significant for providing neuroprotection.

In another test the test system is hippocampal slices. As to the kind of experiment: Zero magnesium model of epileptiform activity in hippocampal slices. Format: cell-based, rat. The note with it: slices incubated in 20 μM for 15 minutes, then zero magnesium solution, N=6. As for the experimental part: Sprague-Dawley male rats (P14-18) were deeply anesthetized with ether and after the decapitation, the brains were removed rapidly and laced in the fresh high sucrose dissection solution. After hippocampus isolation, hippocampal slices ([…]) were prepared using a Vibratome. The prepared slices were incubated in the artificial cerebrospinal fluid (ACSF) (pH 7.3) for half an hour. After incubating period, slices were transferred to recording chamber while oxygenated ACSF was continuously perfused constantly with the rate of 2 ml/min at 30° C. Borosilicate glass recording electrodes were filled with 0.9% NaCl (1-2 MΩ) and used for extracellular field potential recordings. Extracellular recordings were done from the border area between radiatum and pyramidale layers. Filled micropipettes (4-7 MΩ) containing intracellular solution were used for whole cell current-clamp recordings in the CA1 pyramidale layer. To elicit action potential activity, depolarizing square wave current pulses incremented by 20 pA were injected into the somas for 500-1000 ms, followed by 10 ms return to the baseline holding membrane potential (−80 mV). In addition, to square wave current pulses, slow depolarizing ramp-like current injections were used to quantify action potential threshold values. Neuronal membrane and field potential recordings were performed in control and in the RRD4 groups. […]

Test [3] deals with hippocampal slices, CA1 pyramidale layer. The experiment in a line: Whole cell current-clamp recordings of action potentials in hippocampal slices. In kind it is cell-based. The note with it: rat hippocampal slices perfused with 20 μM, vs control, N=6. As to the method:
Sprague-Dawley male rats (P14-18) were deeply anesthetized with ether and after the decapitation, the brains were removed rapidly and laced in the fresh high sucrose dissection solution. After hippocampus isolation, hippocampal slices ([…]) were prepared using a Vibratome. The prepared slices were incubated in the artificial cerebrospinal fluid (ACSF) (pH 7.3) for half an hour. After incubating period, slices were transferred to recording chamber while oxygenated ACSF was continuously perfused constantly with the rate of 2 ml/min at 30° C. Borosilicate glass recording electrodes were filled with 0.9% NaCl (1-2 MΩ) and used for extracellular field potential recordings. Extracellular recordings were done from the border area between radiatum and pyramidale layers. Filled micropipettes (4-7 MΩ) containing intracellular solution were used for whole cell current-clamp recordings in the CA1 pyramidale layer. To elicit action potential activity, depolarizing square wave current pulses incremented by 20 pA were injected into the somas for 500-1000 ms, followed by 10 ms return to the baseline holding membrane potential (−80 mV). In addition, to square wave current pulses, slow depolarizing ramp-like current injections were used to quantify action potential threshold values. Neuronal membrane and field potential recordings were performed in control and in the RRD4 groups. RDD4 group brain slices were perfused with 20 μM RRD4. Zero magnesium model of inducing epileptiform activities was used in these experiments. In the treated group slices were incubated in 20 μM RRD4 for 15 minutes, and then were exposed to zero magnesium solution.
The neurodegeneration observed in many diseases has been associated with a progressive decrease in neuronal activity and synaptic dismantling is associated with many neurodegenerative diseases. A potential strategy for preventing and/or halting neurodegenerative disease is by modulating intrinsic properties of individual neurons. Applicants observed that RRD4 pretreatment increased action potential threshold (FIG. 5). Action potential threshold was measured at the beginning of the sharp upward rise of the depolarizing phase of the action potential. (*P<0.05). Based on the data, RRD4 increases action potential (AP) threshold and decreases its amplitude. […] Further, pretreated slices with RRD4 had lower peak potential amplitude (FIG. 6). Mean values for the AP amplitude is voltage difference in 10-90% rise time in each action potential. (*P<0.05).

Each structure is given as a SMILES string. “Also recorded” adds a separate entry of the source.

Regarding `N[C@@H]1CCCC[C@H]1N.O=P([O-])(O)OP(=O)([O-])O.[Pt+2]` [RRD2], in test [1] (20 μM, FIG. 4A), the “RAB27A protein expression vs untreated cells” value is listed as “overexpressed in untreated cells as compared to cells treated”. Moreover, in test [1], the “ATF3 protein expression compared to control” value is on record as “higher”, the “HPD protein expression compared to control” value is on record as “higher”, the “NMDAR2C protein expression compared to control” value is “higher” and the “RAB27A protein expression compared to control” value is listed as “lower”. For the same molecule, in test [1], the “SLC39A3 (ZIP3) protein expression compared to control” value is reported as “lower” and the “SQSTM1 protein expression compared to control” value is on record as “higher”. Moreover, in test [2], the “Fold change expression of ATF” value was 10↑ fold, the “Fold change expression of NMDAR2C” value is reported as 8↑ fold, the “Fold change expression of RAB27A” value is 1.7↓ fold and the “Fold change expression of SLC39A3” value is 2↓ fold.

Regarding `NC1CCCCC1N.O=P1(O)OP(=O)(O)[O][Pt]([OH])([OH])[O]1` [RRD4], in the test with hippocampal slices, the “Time to seizure onset (seizure threshold, first seizure formation)” value is given as “significant effect in delaying; also recorded: significantly delayed”. Moreover, in test [1] (25 μM, FIG. 4A), the “RAB27A protein expression vs untreated cells” value is recorded as “overexpressed in untreated cells as compared to cells treated” and the “SQSTM protein expression vs untreated cells” value is “enhanced expression”. In test [1], the “ATF3 protein expression compared to control” value is “higher”, the “HPD protein expression compared to control” value is on record as “higher”, the “NMDAR2C protein expression compared to control” value was “higher” and the “RAB27A protein expression compared to control” value is “lower”. Moreover, in test [1], the “SLC39A3 (ZIP3) protein expression compared to control” value is “lower” and the “SQSTM1 protein expression compared to control” value is on record as “higher”. For the same molecule, in test [2], the “Fold change expression of ATF” value was 10↑ fold, the “Fold change expression of NMDAR2C” value was 8↑ fold, the “Fold change expression of RAB27A” value is listed as 1.7↓ fold and the “Fold change expression of SLC39A3” value is recorded as 2↓ fold. Also, in test [3], the “Action potential (AP) amplitude” value was “lower; also recorded: decreased significantly”, the “Action potential (AP) threshold” value was “increased; also recorded: raised”, the Input resistance result is recorded as “no effect” and the “Membrane depolarization in treated cells” value is given as “significantly more depolarized”.
